Test [1] has as its target T1, Heat shock factor protein 1 (Mus musculus, UniProt P38532).
T1 sequence (P38532 whole entry): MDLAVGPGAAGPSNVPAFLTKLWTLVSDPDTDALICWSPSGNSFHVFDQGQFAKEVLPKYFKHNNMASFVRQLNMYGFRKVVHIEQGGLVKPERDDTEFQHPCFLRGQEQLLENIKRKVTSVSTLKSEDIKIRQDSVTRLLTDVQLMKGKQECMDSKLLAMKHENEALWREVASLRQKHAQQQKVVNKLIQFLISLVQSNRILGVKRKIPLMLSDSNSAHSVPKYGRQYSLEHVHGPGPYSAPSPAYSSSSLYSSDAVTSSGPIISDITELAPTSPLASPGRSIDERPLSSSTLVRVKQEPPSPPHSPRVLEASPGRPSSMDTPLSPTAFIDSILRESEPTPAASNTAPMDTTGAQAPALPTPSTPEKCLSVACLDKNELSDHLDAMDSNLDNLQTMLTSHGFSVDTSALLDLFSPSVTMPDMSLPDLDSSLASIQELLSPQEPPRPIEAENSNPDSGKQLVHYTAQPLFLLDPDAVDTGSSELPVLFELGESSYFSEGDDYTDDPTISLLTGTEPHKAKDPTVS
Briefly: inhibition of MG132-induced HSE-luciferase signal, confirmation, cell-based, NIH3T3, luminescence, dose retest (AID 2382).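 Also: NIH3T3 fibroblasts with HSF1-driven luciferase reporter stressed by proteasome inhibitor MG132; luminescence from HSF1-driven luciferase expression after 8 hours of MG132 stress.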 Type of test: functional.

In test [2] the target is T1, Heat shock factor protein 1. As to the kind of experiment: HSF1 potentiators in luciferase reporter cells, confirmation, cell-based, NIH3T3, luminescence, dose retest (AID 435004).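 Also: stress induced by proteasome inhibitor MG132 added 30 min after compound; luciferase reporter driven by HSF1 response element in NIH3T3 cells; actives raise luminescence as potentiators of the MG132 stress response.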 Type of test: functional. A general note: In a reporter assay the amount or activity of a reporter protein is the signal.
Another test has as its system H9c2. Briefly: cells. The following applies: Rattus norvegicus, H9c2, Myocardium. Type of test: functional, cell-based.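 Also: confirmatory concentration-response retest of ultra-high-throughput screening hits for modulation of myocardial damage; cell death induced by hydrogen peroxide oxidative stress; compound pretreatment for 60 min then peroxide exposure for 2 h; potency is for protecting the cells against peroxide damage rather than for killing them.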
A further test relates to Streptococcus. As to the kind of experiment: Group A Streptococcus viability loss, dose response, counter-screen for streptokinase expression inhibitor project, luminescence, BacTiterGlo (AID 1915).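 Also: potency for reduction of bacterial viability or growth.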 Type of test: functional, organism-based. (In general: A counterscreen serves to expose hits that act by an unwanted route or on another target.)
The test system of test [3] is Streptococcus sp. 'group A'. As to the kind of experiment: growth inhibition of control SK(-) GAS strain, dose response, counter-screen for streptokinase expression inhibitor project, luminescence, kanamycin, BacTiterGlo, confirmation (AID 1900). Type of test: functional, organism-based.
Test [4] in a line: inhibitors of SNCA 5'UTR-driven reporter translation, confirmation, H4 neuroglioma cells, luminescence (AID 1988). Type of test: functional, cell-based.
Test [5] in a line: inhibitors of firefly luciferase expression or activity, dose response, H4 neuroglioma cells, luminescence (AID 1990). Type of test: functional, cell-based.
A short description of test [6]: Luminescence Cell-Based Dose Response HTS to Identify Inhibitors of 5'UTR Stem-Loop Driven Prion Protein mRNA Translation in H4 Neuroglioblastoma Cells. [Related pubchem assays: 1827 (Project Summary), 1813 (Primary HTS)]. Type of test: functional.
A short description of test [7]: inhibitors of intracellular T. cruzi replication, confirmation, NIH3T3 host cells, beta-gal luminescence (AID 2044).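 Also: intracellular parasites grown in NIH/3T3 mouse fibroblasts as host cells; luminescent beta-galactosidase reporter signal from transgenic T. cruzi replicating inside host cells; inhibitors lower the luminescence signal.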 Type of test: functional, cell-based.
Test [8] can be described thus: cytotoxicity toward NIH3T3 fibroblasts, dose response, counter-screen, cell-based, ATP luminescence, mouse fibroblasts (AID 2010).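 Also: cells exposed to compound for about 90 hours before reading.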 Type of test: functional.
The target in the next test is Paired box protein Pax-8 (Homo sapiens, UniProt Q06710). Briefly: inhibitors of PAX8-driven TPO luciferase reporter, dose response, RMG-I cells, cherry-pick (AID 687027).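 Also: luciferase reporter driven by Pax8 target thyroperoxidase promoter measured by SteadyGlo luminescence.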 Type of test: functional, cell-based.
Chain of Paired box protein Pax-8 (Q06710 whole entry): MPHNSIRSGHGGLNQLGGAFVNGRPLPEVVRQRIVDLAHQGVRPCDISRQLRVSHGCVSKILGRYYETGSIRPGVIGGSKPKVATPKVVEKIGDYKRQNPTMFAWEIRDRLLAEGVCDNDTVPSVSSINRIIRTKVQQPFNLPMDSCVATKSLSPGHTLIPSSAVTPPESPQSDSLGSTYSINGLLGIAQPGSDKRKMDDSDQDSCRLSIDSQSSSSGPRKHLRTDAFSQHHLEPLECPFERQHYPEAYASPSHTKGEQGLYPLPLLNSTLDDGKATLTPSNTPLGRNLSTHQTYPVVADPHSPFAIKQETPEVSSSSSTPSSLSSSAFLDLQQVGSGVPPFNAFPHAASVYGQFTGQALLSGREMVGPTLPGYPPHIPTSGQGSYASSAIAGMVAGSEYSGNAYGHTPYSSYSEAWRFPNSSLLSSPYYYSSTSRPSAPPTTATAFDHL
The nature of test [9]: Luminescence Cell-Based Dose Response HTS to Identify Activators of Luciferase Translation or Activity in H4 […] Cells. [Related pubchem assays: 1829 (Project Summary), 1814 (Primary HTS)]. Type of test: functional.
A further test addresses Cytochrome P450 3A4 (Homo sapiens, UniProt P08684).
Another test has as its system INS1. As to the kind of experiment: beta cell apoptosis inhibitors, cytokine rescue, dose response, luminescence, retest (AID 449756).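 Also: cell death triggered by IL-1 beta plus TNF-alpha plus IFN-gamma mixture; protective hits raise ATP signal compared with cytokine alone wells.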 Type of test: functional, cell-based. The settings on record: Rattus norvegicus.
Test [10] is described as follows: Luminescence Cell-Based Dose Retest to Confirm Inhibitors of Cancer Stem Cells. [Related pubchem assays (depositor defined):AID2717, AID2721]. Type of test: functional, Homo sapiens. The following applies: Homo sapiens.

Calls of active or inactive are those of the source. Rule as the data show it, for most assays here: actives have a measured EC50 and inactives only a lower limit. Some results are limits rather than exact numbers.

Chain of Cytochrome P450 3A4 (P08684 whole entry): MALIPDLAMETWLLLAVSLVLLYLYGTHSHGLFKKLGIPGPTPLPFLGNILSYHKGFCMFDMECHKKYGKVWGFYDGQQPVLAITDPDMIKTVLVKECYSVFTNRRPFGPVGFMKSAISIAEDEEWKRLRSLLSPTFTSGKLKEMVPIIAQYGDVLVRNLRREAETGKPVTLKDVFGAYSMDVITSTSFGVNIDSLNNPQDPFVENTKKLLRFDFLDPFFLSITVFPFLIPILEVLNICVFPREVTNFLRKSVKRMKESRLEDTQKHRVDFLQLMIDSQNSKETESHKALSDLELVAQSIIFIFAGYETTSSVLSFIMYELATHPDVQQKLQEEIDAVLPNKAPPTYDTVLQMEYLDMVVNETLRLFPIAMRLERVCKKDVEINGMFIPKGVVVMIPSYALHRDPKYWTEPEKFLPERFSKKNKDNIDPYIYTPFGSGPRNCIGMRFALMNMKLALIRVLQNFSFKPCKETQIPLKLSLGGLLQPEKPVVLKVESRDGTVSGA

Take `CC(C)(C)c1ccc(/C=N/N2C(=O)CSC2=S)cc1`: in [1], the EC50 (usually the midpoint of the concentration-response curve) was 44.1 µM (active).

As for `Cc1cccc(-[n+]2c(C)cc(C)c3c(=O)[nH]c(=O)[nH]c32)c1`, the EC50 in test [2] is > 260 µM (inactive).

As to `CC(C)(C)OC(=O)C[C@H]1C/C=C\C[C@H](CC(=O)N[C@H](CO)Cc2ccccc2)C(=O)N[C@H](Cc2ccccc2)COC1=O`, the IC50 (in general, the concentration at which inhibition is half-maximal) in the test on H9c2 was > 79 µM (inactive).

In the case of `CC(=O)c1ccc(OCC(O)CN2CCN(Cc3ccc4c(c3)OCO4)CC2)cc1` (stereo not drawn), in test [1], the EC50 was > 195 µM (not active).

Regarding `Cc1ccc(OCC(=O)Nc2nc(-c3ccccn3)cs2)c(C)c1`, the IC50 in the test on H9c2 is > 79 µM (inactive). Moreover, the EC50 in the test with Streptococcus was 4.62 µM (active); in [3], 1.08 µM (active).

In the case of `COC(=O)c1ccccc1NC(=O)/C=C/c1cc(OC)c(OC)c(OC)c1`, the 50% inhibitory concentration (IC50) in the test with H9c2 was 10.5 µM (active).

Turning to `C/C(CCc1oc2c(Br)cc(Br)cc2c1-c1ccc(C)o1)=N\O`, the EC50 in test [2] is > 260 µM (inactive).

Consider `c1ccc(N2CCOCC2)c(Nc2nc3ccccc3n3cnnc23)c1`, for which the IC50 in the test with H9c2 was > 79 µM (inactive).

In the case of `Cc1ccc(C)c(OCCn2cc(/C=C(\C#N)C(=O)NCc3ccco3)c3ccccc32)c1`, the EC50 in test [4] is 25.1 µM (active); in test [5] it was > 120 µM (not active); in test [6] it was 17.1 µM (active).

For the molecule `CCOc1ccc(S(=O)(=O)NN=C(S)Nc2ccc(Br)cc2)cc1`, the EC50 in test [2] was > 260 µM (inactive).

For `COc1cccc(CC2(CO)CCN(S(=O)(=O)c3ccc(OC)cc3OC)CC2)c1`, the EC50 in [1] is recorded as > 195 µM (not active).

In the case of `NS(=O)(=O)c1ccc(NC(=O)CN2C(=O)CCC2=O)cc1`, in test [2], the EC50 is > 260 µM (inactive).

Turning to `O=C(Nc1cnn(Cc2ccc(F)cc2)c1)c1cc(-c2ccco2)on1`, the EC50 in [1] was > 195 µM (not active).

On to `COc1ccc(Nc2nc(C(=O)N3CCc4cc(OC)c(OC)cc4C3)cs2)cc1`, for which the IC50 with H9c2 was > 79 µM (inactive).

For `CCOc1ccc(S(=O)(=O)c2c(C(=O)c3ccccc3)cnc3cc4c(cc23)OCCO4)cc1`, the EC50 was 2.43 µM (active) in [7], > 260 µM (inactive) in test [2] and 17.8 µM (active) in [8].

Turning to `CC(=O)NCc1ccc(-c2csc(NC(=O)CCc3nc(O)c4ccccc4n3)n2)s1`, the IC50 with H9c2 was > 79 µM (inactive).

Regarding `O=C(Nc1ccc2c(c1)nc(O)c1ccccc12)C(F)(F)F`, in the test on H9c2, the IC50 was > 79 µM (inactive).

Consider `C[C@@H]1CCCCO[C@H](CN(C)CC2CCCCC2)[C@H](C)CN([C@H](C)CO)C(=O)c2cc(NS(=O)(=O)c3ccc(Cl)cc3)ccc2O1`, for which the AC50 (commonly the concentration giving half of the maximal activity seen) on Paired box protein Pax-8 was 5.21 µM (active).

For the molecule `Cc1cccc(OCC(=O)Nc2ccc3c(c2)nc(CCN2CCCCC2)n3C)c1`, the EC50 in test [2] was > 260 µM (inactive).

Turning to `CCc1ccccc1N(CC(=O)NCc1ccco1)C(=O)CCC(=O)Nc1ccccn1`, in [1], the EC50 was 35.8 µM (active).

For the molecule `COc1ccc(-c2cc(C(F)(F)F)n3nc(C(=O)N4CCN(C(=O)c5ccco5)CC4)cc3n2)cc1`, the IC50 with H9c2 was 13 µM (active).

Regarding `COc1ccc(OCC(O)Cn2c(Nc3cccc(C)c3)nc3c2c(=O)n(C)c(=O)n3C)cc1` (stereo not drawn), the IC50 in the test with H9c2 was 10.1 µM (active).

In the case of `O=C(NCCN1CCN(C(=O)c2ccc(Br)cc2)CC1)c1ccc(Br)cc1`, the EC50 in test [2] was > 260 µM (inactive).

As to `O=C(O)C1CCCCC1C(=O)Nc1cccc(C(=O)N2CCCCC2)c1` (stereo not drawn), the EC50 in [1] is listed as > 195 µM (not active).

`Cc1ccc(NC(=O)CN(C)C(S)=NC2CC2)cc1`: the EC50 in test [4], in test [5] and in [6] was > 120 µM (not active) each time.

Regarding `O=C(COC(=O)c1cccs1)c1ccc2c(c1)OCCO2`, the values for the EC50 in [9] and in test [1] were < 0.1 µM (active) and 0.213 µM (active), respectively.

Consider `COc1ccc(/C=N/NC(=O)c2ccncc2)cc1COc1ccc(NC(C)=O)cc1`, for which the EC50 in test [4], in test [5] and in [6] was > 120 µM (not active) in each case.

As for `CS(=O)(=O)c1nc(-c2ccccc2)cc(-c2ccccc2)c1C#N`, on Cytochrome P450 3A4, the AC50 is 22.4 µM (inconclusive). The EC50 in test [2] is 16.7 µM (active).

Turning to `CC(C)OCCCNC(=O)c1cccc(NC(=O)c2ccccc2)c1`, the AC50 at Paired box protein Pax-8 was 41.6 µM (active).

Consider `Cc1ccccc1NC(S)=NNC(=O)c1csc2c1CCC(C)C2` (stereo not drawn), for which the EC50 in [1] was < 0.16 µM (active).

Regarding `Cc1ccc(NC(=O)c2[nH]cnc2C(=O)NCCCCCCNC(=O)c2nc[nH]c2C(=O)Nc2ccc(C)cc2)cc1`, in the test on H9c2, the IC50 is > 79 µM (inactive).

As for `CC(C)NC(=O)CN(C(=O)CCC(=O)Nc1nccs1)c1ccc2c(c1)OCO2`, the EC50 in test [2] was > 260 µM (inactive).

Consider `CC(C)(C)OC(=O)C[C@@H]1C/C=C\C[C@@H](CC(=O)N[C@@H](CO)Cc2ccccc2)C(=O)NC[C@@H](c2ccccc2)OC1=O`, for which, in the test with H9c2, the IC50 was 11.1 µM (active).

For the molecule `O=C(c1ccco1)N1N=C(c2ccc(Br)cc2)CC1(O)C(F)(F)F` (stereo not drawn), the AC50 on Paired box protein Pax-8 was 27.1 µM (active).

Take `CC1CN(C(=O)C(C)N2C(=O)c3ccccc3C2=O)CC(C)O1` (stereo not drawn): the EC50 in test [1] was 33.4 µM (active).

Take `O=C(COC(=O)CCc1nc(O)c2ccccc2n1)NC(c1ccccc1)c1ccccc1`: in the test on H9c2, the IC50 is > 79 µM (inactive).

As to `COc1cc2c(cc1OC)CN(C(=O)CNS(=O)(=O)c1ccc(C)c(C)c1)CC2`, the EC50 in test [4], in test [5] and in test [6] was > 120 µM (not active) throughout.

Take `COc1ccc2c(c1)-c1c(sn(-c3ccccc3)c1=S)C(C)(C)N2`: the EC50 in test [2] is > 260 µM (inactive).

With `CCN(CC)C(=O)c1[nH]cnc1C(=O)NCC(=O)OCc1ccccc1`, the IC50 in the test on H9c2 was 6.99 µM (active).

In the case of `O=C(Cn1[nH]c(=O)c2ccccc2c1=O)N1CC=C(c2ccccc2)CC1`, in the test on H9c2, the IC50 is > 79 µM (inactive).

For the molecule `N#C/C(=C/c1ccc(Br)o1)C(N)=O`, the EC50 in test [1] was > 195 µM (not active).

On to `CCCCNC(=O)c1ccc(Cn2c(=S)[nH]c3c([nH]c4ccc(OC)cc43)c2=O)cc1`, for which the AC50 is 5.01 µM (active) in the test on INS1 and 0.687 µM (active) in test [10]. Further, the 50% effective concentration (EC50) in test [1] is 3.02 µM (active).

With `CSCCC(c1nnnn1-c1ccc2c(c1)OCCO2)N1CCC(n2c(O)nc3ccccc32)CC1` (stereo not drawn), the AC50 on Paired box protein Pax-8 is 2.14 µM (active).

Consider `COc1cc2c3c(c1OC)C1(C=CC(=NO)C=C1)CC3N(C(C)=O)CC2` (stereo not drawn), for which the 50% effective concentration (EC50) in test [4], in test [5] and in [6] was > 120 µM (not active) in each case.

In the case of `CN(CC(=O)Nc1cccc(F)c1)C(=O)CCc1nc(O)c2ccccc2n1`, the IC50 with H9c2 was > 79 µM (inactive).

As for `CCOc1ccc(S(=O)(=O)N2CCC(C(=O)N3CCOCC3)CC2)cc1C`, the values for the EC50 in test [4], in [5] and in test [6] were > 120 µM (not active), 16.4 µM (active) and > 120 µM (not active), respectively.

`CC1CCN(C(c2ccc(N(C)C)cc2)c2nnnn2Cc2ccccc2)CC1` (stereo not drawn): the EC50 in [2] was > 260 µM (inactive).

Turning to `O=C(CN1CCN(c2ccccn2)CC1)Nc1ccc([N+](=O)[O-])cc1C(=O)Nc1ccccc1F`, the IC50 with H9c2 is > 79 µM (inactive).

The values above are taken from ChEMBL document CHEMBL1201862, “PubChem BioAssay data set” (2004).
